From PMC4102417 (PLoS Neglected Tropical Diseases, 2014) come the findings set out here.

One assay has as its system 3T3 fibroblast cells. In words: cells. Format: cell-based, murine. The following applies: for activity at 10 µM: Mus musculus, NIH3T3, 72 h, read-out: Mammalian (3T3) cell % growth at 10 uM.
Assay [1] has as its system T. cruzi (Tulahuen strain). In words: microbe, parasite or virus in culture. Format: cell-based, Trypanosoma cruzi. The following applies: for activity at 10 µM: 120 h, read-out: T. cruzi % growth @ 10 uM (Amastigotes); for EC50: read-out: T. cruzi EC50. As to the method:
Compounds were tested against T. cruzi (Tulahuen strain) stably expressing the beta-galactosidase gene as previously described. […] Fibroblasts were plated at a density of 2×10^3 per well in 96 well tissue culture plates. After 24 hours of incubation, 1×10^4 trypomastigotes/well were added to the fibroblasts and incubated for 4 hours before addition of the test compounds from the Spectrum Collection (10 µM final concentration). Cultures were incubated at 37°C for 5 days, then developed with chlorophenol red β-D-galactopyranoside as previously described. The percent inhibition is reported with standard deviation of the mean. […] Z-prime values were calculated for each 96-well plate based on positive (4 wells) and negative controls (4 wells).

[2] abbreviates: Trypanosoma cruzi, TULAHUEN, Fibroblast, 10 uM, Table S2.
Where [3] appears, read: Trypanosoma cruzi, TULAHUEN, Fibroblast.

SMILES strings stand for the structures. Counter-ions that a name gives are not always drawn. Like-named read-outs stand apart in the source and are kept apart here.

With `Oc1cc2c(cc1O)C1c3ccc(O)c(O)c3OCC1(O)C2` (stereo not shown) [HAEMATOXYLIN, 8-oxatetracyclo[8.7.0.0^{2,7}.0^{12,17}]heptadeca-2,4,6,12,14,16-hexaene-5,6,10,14,15-pentol], the activity at 10 µM in the assay on 3T3 fibroblast cells (10 uM, Table S2) is 100%; in assay [1] (setting [2]) it was 3.7%.
Take `CC1(C)C=CC(=O)C2(C)C1CC(=O)C1(C)C2CCC2(C)C(c3ccoc3)OC(=O)C3OC321` (stereo not shown) [DEACETOXY-7-OXISOGEDUNIN, 7-(furan-3-yl)-1,8,12,16,16-pentamethyl-3,6-dioxapentacyclo[9.8.0.0^{2,4}.0^{2,8}.0^{12,17}]nonadec-14-ene-5,13,19-trione]: the activity at 10 µM came out at 100% in the assay on 3T3 fibroblast cells (10 uM, Table S2) and 3.9% in assay [1] (setting [2]).
Consider `O=c1c(O)c(-c2ccccc2)oc2ccccc12` [3-HYDROXYFLAVONE, 3-hydroxy-2-phenyl-4H-chromen-4-one], for which the activity at 10 µM in the assay on 3T3 fibroblast cells (10 uM, Table S2) was determined as 85.7%; in assay [1] (setting [2]) it was 4.1%.
Consider `CN1CCCC(n2nc(Cc3ccc(Cl)cc3)c3ccccc3c2=O)CC1` (stereo not shown) [AZELASTINE HYDROCHLORIDE, 4-[(4-chlorophenyl)methyl]-2-(1-methylazepan-4-yl)-1,2-dihydrophthalazin-1-one hydrochloride], for which the activity at 10 µM in the assay on 3T3 fibroblast cells (10 uM, Table S2) was 95.1%; in assay [1] (setting [2]) it was 1.5%. Besides, the EC50 in assay [1] (setting [3]) turned out to be 2.2 µM.
In the case of `CN1CCN(CCCN2c3ccccc3Sc3ccc(C(F)(F)F)cc32)CC1` [TRIFLUOPERAZINE, 10-[3-(4-methylpiperazin-1-yl)propyl]-2-(trifluoromethyl)-10H-phenothiazine], the activity at 10 µM in the assay on 3T3 fibroblast cells (10 uM, Table S2) was found to be 94.7%; in assay [1] (setting [2]), 20.4%.
On the same counts, the results for `CNc1ccccc1C(=O)N1CCc2c([nH]c3ccccc23)C1=O` [RHETSININE, 2-{[2-(methylamino)phenyl]carbonyl}-1H,2H,3H,4H,9H-pyrido[3,4-b]indol-1-one] are 75.7% and 5.9%.
`O=c1[nH]c(=O)n(C2CC(O)C(CO)O2)cc1F` (stereo not shown) [FLOXURIDINE, 5-fluoro-1-[4-hydroxy-5-(hydroxymethyl)oxolan-2-yl]-1,2,3,4-tetrahydropyrimidine-2,4-dione]: the activity at 10 µM in the assay on 3T3 fibroblast cells (10 uM, Table S2) stood at 86.2%; in assay [1] (setting [2]), 2.6%.
As for `CSc1ccc2c(c1)C(N1CCN(C)CC1)Cc1ccccc1S2` (stereo not shown) [METHIOTHEPIN, (2Z)-but-2-enedioic acid; 1-methyl-4-[6-(methylsulfanyl)-2-thiatricyclo[9.4.0.0^{3,8}]pentadeca-1(15),3,5,7,11,13-hexaen-9-yl]piperazine], the activity at 10 µM with 3T3 fibroblast cells (10 uM, Table S2) is 69.6%; in assay [1] (setting [2]) it was 4.4%.
Consider `CC1(C)C(=O)C2OC2C2(C)C1CC(O)C1(C)C2CCC2(C)C(c3ccoc3)OC(=O)C3OC321` (stereo not drawn) [1,2alpha-EPOXYDEACETOXYDIHYDROGEDUNIN, 7-(furan-3-yl)-20-hydroxy-1,8,12,17,17-pentamethyl-3,6,14-trioxahexacyclo[9.9.0.0^{2,4}.0^{2,8}.0^{12,18}.0^{13,15}]icosane-5,16-dione], for which the activity at 10 µM in the assay on 3T3 fibroblast cells (10 uM, Table S2) was 77.3%; in assay [1] (setting [2]), 7.8%.
In the same order, the values of `CC1(C)C(=O)C=CC2(C)C1CC(O)C1(C)C2CCC2(C)C(c3ccoc3)OC(=O)C3OC321` (stereo not shown) [DEACETYLGEDUNIN, 7-(furan-3-yl)-19-hydroxy-1,8,12,16,16-pentamethyl-3,6-dioxapentacyclo[9.8.0.0^{2,4}.0^{2,8}.0^{12,17}]nonadec-13-ene-5,15-dione] are 76% and 4.4%.
As to `CC12C=CC(=O)C=C1CCC1C2CCC2(C)C(=O)CCC12` (stereo not shown) [ANDROSTA-1,4-DIEN-3,17-DIONE, 2,15-dimethyltetracyclo[8.7.0.0^{2,7}.0^{11,15}]heptadeca-3,6-diene-5,14-dione], the activity at 10 µM turned out to be 72.1% in the assay on 3T3 fibroblast cells (10 uM, Table S2) and 25.1% in assay [1] (setting [2]).
Consider `CCOc1ccc(Cc2nccc3cc(OCC)c(OCC)cc23)cc1OCC` [ETHAVERINE, 1-[(3,4-diethoxyphenyl)methyl]-6,7-diethoxyisoquinoline], for which the activity at 10 µM in the assay on 3T3 fibroblast cells (10 uM, Table S2) was 95.1%; in assay [1] (setting [2]) it was 3.7%.
For `COc1cc(O)c2c(c1)C(=O)c1cc(C)cc(O)c1C2=O` [PHYSCION, 1,8-dihydroxy-3-methoxy-6-methyl-9,10-dihydroanthracene-9,10-dione], the activity at 10 µM stood at 96.8% in the assay on 3T3 fibroblast cells (10 uM, Table S2) and 9.2% in assay [1] (setting [2]).
On to `NC(=O)c1cc([N+](=O)[O-])cc([N+](=O)[O-])c1` [NITROMIDE, 3,5-dinitrobenzamide], for which, in the assay with 3T3 fibroblast cells (10 uM, Table S2), the “Mammalian (3T3) cell % growth at 10 uM” value came out at 97.2%. Besides, the “T. cruzi % growth @ 10 uM (Amastigotes)” value in assay [1] (10 uM, Table S2) is reported as 1.9%. In assay [1] (Table S2, amastigotes), the EC50 turned out to be 4.8 µM.
Turning to `CCC1(O)C(=O)OCc2c1cc1n(c2=O)Cc2cc3ccccc3nc2-1` (stereo not shown) [CAMPTOTHECIN, 19-ethyl-19-hydroxy-17-oxa-3,13-diazapentacyclo[11.8.0.0^{2,11}.0^{4,9}.0^{15,20}]henicosa-1(21),2,4(9),5,7,10,15(20)-heptaene-14,18-dione], the values for the activity at 10 µM (in the assay with 3T3 fibroblast cells; in assay [1] (setting [2])) were 94.3% and 3.9%, respectively.
Consider `Oc1ccc(O)cc1` [HYDROQUINONE, benzene-1,4-diol], for which the activity at 10 µM in the assay on 3T3 fibroblast cells was 93.9%; in assay [1] (setting [3]) it was 22.6%.
`O=c1c(-c2ccc(O)cc2)coc2cc(O)cc(O)c12` [GENISTEIN, 5,7-dihydroxy-3-(4-hydroxyphenyl)-4H-chromen-4-one]: the activity at 10 µM in the assay on 3T3 fibroblast cells (10 uM, Table S2) came out at 100%; in assay [1] (setting [2]), 6.4%.
In the same order, the values of `CN(C)CCCN1c2ccccc2Sc2ccccc21` [PROMAZINE, dimethyl[3-(10H-phenothiazin-10-yl)propyl]amine hydrochloride] are 98.7% and 9.2%.
On to `CC(=O)OC1c2c(ccc3ccc(=O)oc23)OC(C)(C)C1OC(=O)CC(C)C` (stereo not shown) [DIHYDROSAMIDIN, 14-(acetyloxy)-12,12-dimethyl-4-oxo-3,11-dioxatricyclo[8.4.0.0^{2,7}]tetradeca-1(10),2(7),5,8-tetraen-13-yl 3-methylbutanoate], for which the activity at 10 µM amounted to 81.2% with 3T3 fibroblast cells (10 uM, Table S2) and 10.9% in assay [1] (setting [2]).
Turning to `CCCCCC(=O)O[C@]1(C(C)=O)CC[C@H]2C3CCC4=CC(=O)CCC4(C)[C@H]3CCC21C` (stereo partly drawn) [HYDROXYPROGESTERONE CAPROATE, (1S,11S,14R)-14-acetyl-2,15-dimethyl-5-oxotetracyclo[8.7.0.0^{2,7}.0^{11,15}]heptadec-6-en-14-yl hexanoate], the activity at 10 µM in the assay on 3T3 fibroblast cells (10 uM, Table S2) was determined as 100%; in assay [1] (setting [2]), 1.8%. Moreover, the EC50 in assay [1] (Trypanosoma cruzi, TULAHUEN, Fibroblast, Table S2, amastigotes) is 10 µM.
For the compound `Nc1nc(=S)c2[nH]cnc2[nH]1` [THIOGUANINE, 2-amino-6,7-dihydro-3H-purine-6-thione], the activity at 10 µM with 3T3 fibroblast cells (10 uM, Table S2) came out at 98.3%; in assay [1] (setting [2]) it was 14.8%.
As to `Cc1nc2ccccn2c(=O)c1CCN1CCC(C(=O)c2ccc(F)cc2)CC1` [PIRENPERONE, 3-(2-{4-[(4-fluorophenyl)carbonyl]piperidin-1-yl}ethyl)-2-methyl-4H-pyrido[1,2-a]pyrimidin-4-one], the activity at 10 µM in the assay with 3T3 fibroblast cells (10 uM, Table S2) stood at 91.6%; in assay [1] (setting [2]), 23.1%.
For the compound `CNCCC(Oc1ccc(C(F)(F)F)cc1)c1ccccc1` (stereo not shown) [Fluoxetine, methyl({3-phenyl-3-[4-(trifluoromethyl)phenoxy]propyl})amine hydrochloride], the activity at 10 µM with 3T3 fibroblast cells (10 uM, Table S2) worked out at 100%.
For `OCCN1CCN(CCCN2c3ccccc3Sc3ccc(C(F)(F)F)cc32)CC1` [FLUPHENAZINE, 2-(4-{3-[2-(trifluoromethyl)-10H-phenothiazin-10-yl]propyl}piperazin-1-yl)ethan-1-ol], the activity at 10 µM worked out at 100% in the assay with 3T3 fibroblast cells (10 uM, Table S2) and 2.2% in assay [1] (setting [2]).
As for `O=c1cc(-c2cc(O)c(O)c(O)c2)oc2cc(O)cc(O)c12` [HIERACIN, 5,7-dihydroxy-2-(3,4,5-trihydroxyphenyl)-4H-chromen-4-one], the activity at 10 µM was 100% in the assay with 3T3 fibroblast cells (10 uM, Table S2) and 6.5% in assay [1] (setting [2]).
As to `CCCCC1C(=O)N(c2ccccc2)N(c2ccc(O)cc2)C1=O` (stereo not shown) [OXYPHENBUTAZONE, 4-butyl-1-(4-hydroxyphenyl)-2-phenylpyrazolidine-3,5-dione], the activity at 10 µM with 3T3 fibroblast cells (10 uM, Table S2) was determined as 72.8%; in assay [1] (setting [2]), 3.7%. In assay [1] (setting [3]), the EC50 came out at 12 µM.
As to `CCCCc1oc2ccccc2c1C(=O)c1cc(I)c(OCCN(CC)CC)c(I)c1` [Amiodarone, (2-{4-[(2-butyl-1-benzofuran-3-yl)carbonyl]-2,6-diiodophenoxy}ethyl)diethylamine hydrochloride], the activity at 10 µM in the assay on 3T3 fibroblast cells (10 uM, Table S2) came out at 86.7%.
For `CN(C)CCCN1c2ccccc2CCc2ccc(Cl)cc21` [Clomipramine, (3-{5-chloro-2-azatricyclo[9.4.0.0^{3,8}]pentadeca-1(15),3,5,7,11,13-hexaen-2-yl}propyl)dimethylamine hydrochloride], the activity at 10 µM with 3T3 fibroblast cells (10 uM, Table S2) stood at 84.6%.
`CNC1CCC(c2ccc(Cl)c(Cl)c2)c2ccccc21` (stereo not shown) [Sertraline, 4-(3,4-dichlorophenyl)-N-methyl-1,2,3,4-tetrahydronaphthalen-1-amine hydrochloride]: the activity at 10 µM in the assay with 3T3 fibroblast cells (10 uM, Table S2) stood at 100%.
